Several values for one entry are separate records, joined by “and”; a condition that tells them apart may be missing. Identical values can stand only once.
Experiments:
[1] = system: pBR322 plasmid DNA; test: Agarose gel electrophoresis, DNA cleavage; type: biochemical
Experimental: Electrophoresis assays were performed in 1.5% agarose gel and 1× TBE buffer using the DNA plasmid pBR322. The plasmid (15 µM base pairs) was incubated with 10 and 50 μM concentrations of the coordination compounds for 1 h at 37 °C in presence and absence of ascorbic acid (50 μM) as reducing agent and hydrogen peroxide (500 µM) as ROS generator in a final volume of 20 μL. The DNA-cleaving compound [Cu(phen)2(H2O)](NO3)2 was used as reference. The samples were loaded into the gel with 4 μL of a loading buffer (30% glycerol, 5 mM xylene cyanol), and electrophoresis was performed in 1× TBE at 100 V for 1 h in a Bio-Rad horizontal tank. Subsequently, the gel was stained with SYBR™ Safe overnight and images were acquired with a Gel Doc EZ Imager instrument (Bio-Rad).
Distinct forms of pBR322 plasmid DNA are commonly observed by gel electrophoresis due to the conformational changes that present distinct electrophoretic mobility: (1) supercoiled DNA (Form I) that migrates faster on the gel, (2) circular nicked (Form II), obtained from a one-strand scission, has a slower migration through the gel and (3) linear form (Form III) is generated when both strands are cleaved and migrates between forms I and II [54]. The interaction of the free ligands and their copper(II) and zinc(II) coordination compounds with pBR322 was investigated in presence of H2Asc (50 μM) as reducing agent and H2O2 (500 μM) as ROS generator. Solutions of 10 and 50 µM of the coordination compounds were incubated with the DNA at 37 °C for 1 h.

[2] = system: RH tachyzoites of Toxoplasma gondii; test: Viability of extracellular tachyzoites, Sytox Green exclusion test; type: cell-based; details: 2.5-40 µM, 1 h, PBS
Experimental: RH tachyzoites of Toxoplasma gondii were extracted in PBS solution at pH 7.4 from intraperitoneal fluid of infected CD1 mice on the third day of infection and centrifuged for ten minutes at 260g. Purified parasites were used within 4 h after their isolation.
The viability of the parasites was determined from staining with Sytox Green® fluorescent dye exclusion test. Purified tachyzoites (1 × 10^6) were incubated for one hour at room temperature with PBS solutions of the coordination compounds or the free ligands at concentrations of 40, 20, 10, 5, and 2.5 µM (0.1% DMSO), in a volume final of 1 mL. After the incubation time, the samples were centrifuged for 10 min at 250g, the medium was removed and 20 µL of Sytox Green® was added after 15 min of incubation for differentiate dead parasites in a Neubauer chamber. The assays were performed in triplicate. The half maximal inhibitory concentration (IC50) was calculated by Boltzmann regression analysis and expressed as mean ± standard error of three replicates. Based on the results the tachyzoites were incubated under the same conditions with the coordination compounds [Cu(onz)2Cl2] and [Cu(onz)2Br2] at their respective IC50 values, Sytox Green® was then added, and they were observed by fluorescence microscopy. Sulfadiazine was used as positive control.
Viability assays were performed against tachyzoites of Toxoplasma gondii. The RH strain was used to evaluate the effect of different concentrations (namely, 2.5, 5, 10, 20 and 40 µM) of the coordination compounds and the free 5-nitroimidazole against the tachyzoites. The evaluation were performed in PBS buffer (pH 7.4) with Sytox Green® exclusion test, which allows differentiating dead from live tachyzoites, since the intact cell membrane of alive ones is not stained.

[3] = Distribution coefficient LogD7.4, shake-flask 1-octanol/MOPS buffer; type: physicochemical; details: 25 °C; for LogD7.4: octanol/water (MOPS buffer 10^–2 M), 3 h
Experimental: Solutions between 100 and 10 µM of the free ligands (cenz and onz) and the coordination compounds 3–10 were prepared in a MOPS buffer pH 7.4 as the aqueous phase and in 1-octanol as the organic phase. The absorption at 320 nm and 310 nm was determined for the aqueous and organic phase respectively by electronic spectroscopy (UV–Vis). Through a linear regression (concentration vs. absorption) the molar extinction coefficient of each compound in both phases was determined (Table 3). The lipophilicity was calculated in the 1-octanol/water system from the shake flask method using Eq. 1 [39]:1 […] where, Co is the final concentration in the organic phase and Cw is the final concentration in the aqueous phase (MOPS buffer at 10^–2 M pH 7.4). Both phases were presaturated with 50 µM solutions of the free ligands or 500 µM of each coordination compound and their UV spectrum was recorded. Both phases were combined and kept stirring for 3 h at 25 °C and in the absence of light. Subsequently, the mixture was centrifuged at 400g and the concentration in both phases was determined by UV–Vis spectroscopy using the Beer-Lambert law. The assays were performed in triplicate.
The T gondii parasite is an apicomplex organism; it requires a host cell to live, so it is important that the drugs used against the parasite have easy access to the cell. The lipophilicity of a compound is an important physicochemical property to determine its ability to permeate the biological membrane through passive diffusion; which usually is measured from the distribution coefficient logD7.4 = log(Co/Cw), in n-octanol/water. The shake-flask method was used to determine the LogD7.4 values from the molar extinction coefficients of the coordination compounds and the ligands in the two solvents (Table 3).

[4] = system: ct-DNA; test: Circular dichroism of ct-DNA; type: binding, calf; details: [DNA]b = 50 µM, [complex]/[DNA] 0-2, 1 h 37 °C
Experimental: (§1) For the UV–Vis, fluorescence and circular dichroism assays the concentration of ct-DNA was determined on a Varian Cary 100 Scan spectrophotometer from the absorption at 260 nm and the corresponding molar absorptivity of 6600 M^−1 cm^−1 (nucleobase concentration). The stock solutions of the coordination compounds and the free ligands were prepared in cacodylate/NaCl buffer (1 mM cacodylic acid and 20 mM sodium chloride) at pH 7.25. The final samples contained a DMSO concentration of 0.2%.
Circular dichroism (CD) spectra were recorded using a JASCO-815 spectropolarimeter, equipped with xenon-arc lamp of 450 W. The sample compartment was air-purged with N2 before use. For the measurements, a quartz cuvette with an optical path of 5 mm was used. A solution of 25 µM (in base pairs) of ct-DNA in cacodylate/NaCl buffer was incubated for 1 h at 37 °C with increasing amounts of coordination compounds (0–50 µM). The CD spectra were recorded at room temperature.
The interaction of small molecules with DNA can modify these CD signals depending on the type of binding. Intercalative interactions increase the intensity of the signals, as the result of an increase of the stability of the B conformation, whereas groove binding or covalent interactions tend to decrease the intensity of these signals, which are moreover displaced. The CD spectra for both ligands and their copper(II) and zinc(II) complexes were obtained at constant concentration of ct-DNA, increasing the complex concentration up to two equivalents ([complex]/[DNA] ratios of 0, 0.2, 0.4, 1, 2) with respect to the nucleobases concentration ([DNA]b = 50 µM).

[5] = system: ct-DNA; test: Competitive displacement of Hoechst 33258 from DNA (fluorescence); type: binding, calf; details: Hoechst 33258 1.9 µM, [DNA]b = 30 µM, compound 0-50 µM, 1 h
Experimental: as §1
(§2) Emission intensity of the dyes DNA-intercalator ethidium bromide, EB (λexc = 514 nm) and the minor-groove binder Hoechst 33,258 (λexc = 350 nm) was measured on iHR320 HORIBA JOBIN YVON spectrofluorometer. The samples contained 15 µM (in base pairs) of ct-DNA and 75 µM of EB […] in cacodylate/NaCl buffer. The respective dye was incubated for 30 min with ct-DNA to allow its binding to the biomolecule. Subsequently, increasing amounts of coordination compounds (0–50 µM) were added up to a final volume of 2 mL, and the samples were incubated for 1 h at 37 °C. The fluorescence spectra of all samples were recorded at room temperature. The affinity of the compounds for ct-DNA compared to EB was evaluated through the Stern–Volmer quenching constant Ksv, from Eq. 3:3 I0/I=1+Ksvcompound where I0 and I are the emission intensities in absence and the presence of the compound, respectively.
Competitive binding assays were carried out with Hoechst 33,258. This dye binds to B-DNA, especially those with an AT-rich sequence giving a fluorescent signal at 458 nm when excited at 350 nm. As for to the EB assays, DNA (30 µM) was incubated for 30 min with Hoechst 33,258 (1.9 µM) and increasing amounts of the coordination compounds were subsequently added. In all cases, fluorescence quenching was observed (Fig. 9). As previously, the Ksv constants were determined (Fig. 9c and Table 4). The copper(II) compounds show Ksv values in the […] range (Table 4), indicating a groove binding behavior. For the zinc(II) compounds, the Ksv values are two orders of magnitude lower indicating weaker interactions, must likely of electrostatic nature.

[6] = system: ct-DNA; test: Competitive displacement of ethidium bromide from DNA (fluorescence); type: binding, calf; details: EB 75 µM, [DNA]b = 30 µM, compound 0-50 µM, 1 h
Experimental: as §1, §2
With the aim to corroborate the binding mode of the coordination compounds with DNA competitive displacement assays were carried out by florescence spectroscopy. The fluorescence of ethidium bromide (EB) increases when it intercalates between DNA base pairs, forming an EB-DNA adduct. Competitive binding assays will lead to a decrease of the fluorescence intensity (λexc = 514 nm; λem = 610 nm) if the interacting molecule is capable of displacing EB from the DNA helix. Solutions containing constant concentrations of DNA (30 µM) and EB (75 µM) were incubated for 30 min. Then the coordination compounds to be tested were added in a concentration in the range of 0–50 µM (corresponding to [complex]/[DNA] ratios between = 0 and 3.3), and fluorescence spectra were recorded after 1 h of incubation.

[7] = compound 10 (mM in the source), + H2Asc
[8] = compound 10 (mM in the source), + H2Asc + H2O2
[9] = compound 10 (mM in the source), + H2O2
[10] = compound 10 (mM in the source), no additive
[11] = compound 50 (mM in the source), + H2Asc
[12] = compound 50 (mM in the source), + H2Asc + H2O2
[13] = compound 50 (mM in the source), + H2O2
[14] = compound 50 (mM in the source), no additive

Structure (SMILES) | %Damage [1, 7] | %Nicked [1, 7] [%] | %Supercoiled [1, 7] [%] | %Damage [1, 8] [%] | %Damage [1, 9] | %Supercoiled [1, 9] | %Supercoiled [1, 10] | %Damage [1, 11] [%] | %Supercoiled [1, 11] [%] | %Damage [1, 12] [%] | %Damage [1, 13] [%] | %Nicked [1, 13] [%] | %Supercoiled [1, 13] [%] | %Damage [1, 14] [%] | %Supercoiled [1, 14] [%] | effect on CD spectrum of ct-DNA (bands at 275 and 245 nm) [4] | %Nicked [1, 9] [%] | %Damage [1, 10] [%] | %Nicked [1, 10] [%] | %Nicked [1, 11] [%] | also measured
O.O=[N+]([O-])[O-].O=[N+]([O-])[O-].[Cu+2].c1cnc2c(c1)ccc1cccnc12.c1cnc2c(c1)ccc1cccnc12 [Cu(phen), reference compound] | 100.00% and 94.90% | 64.80 | 5.10 | 100.00 | 80.70% and 79.00% | 19.30% and 21.00% | 81.70% and 93.20% |  |  |  |  |  |  |  |  |  |  |  |  |  | 
Cc1ncc([N+](=O)[O-])n1CCCl [cenz, 1-(2-chloroethyl)-2-methyl-5-nitro-1H-imidazole] |  |  |  |  |  |  |  | 8.80 | 91.20 | 9.70 | 7.20 | 5.90 | 92.80 | 7.50 | 92.50 | did not affect the DNA structure |  |  |  |  | %Nicked [1, 12]: 4.00%; %Supercoiled [1, 12]: 90.30%; DNA cleavage (in words) ([1]; with and without H2Asc / H2O2): did not provoke any significant DNA cleavage; activity against T. gondii [2]: did not show activity; logD at 3 h ([3]; 1-octanol/MOPS buffer, pH 7.4, octanol/water (MOPS buffer 10^–2 M)): 0.72
Cc1ncc([N+](=O)[O-])n1CCCl.Cc1ncc([N+](=O)[O-])n1CCCl.[Cl][Zn][Cl] [[Zn(cenz)2Cl2]] | 17.10% | 2.90 | 82.90 | 90.90 | 7.30% | 92.70% | 79.20% | 80.60 | 19.40 | 100.00 | 97.60 | 81.50 | 2.40 | 18.40 | 81.60 | spectra changes are minor | 6.50 | 20.80 | 2.50 | 40.60 | %Nicked [1, 8]: 2.10%; %Supercoiled [1, 8]: 9.10%; %Nicked [1, 14]: 2.20%; Hoechst 33258 Ksv [5]: 61000 M⁻¹; LogD7.4 [3]: 0.86
Cc1n(CC(O)CCl)c([N+](=O)[O-])c[n+]1[Zn-2]([Br])([Br])[n+]1cc([N+](=O)[O-])n(CC(O)CCl)c1C (stereo not shown) [[Zn(onz)2Br2]] | 87.3% | 81.80 | 12.70 | 100.00 | 14.30% | 85.70% | 96.50% | 98.2 | 1.80 | 100.00 | 44.80 | 29.10 | 55.20 | 11.9 | 88.10 | spectra changes are minor | 4.70 | 3.5 | 2.60 | 98.80 | %Nicked [1, 14]: 0.40%; Hoechst 33258 Ksv [5]: 48000 M⁻¹; LogD7.4 [3]: 0.95; Ethidium bromide Ksv [6]: 2600 M⁻¹

Source: paper PMC11001709, “Anti-toxoplasma activity and DNA-binding of copper(II) and zinc(II) coordination compounds with 5-nitroimidazole-based ligands” (Journal of Biological Inorganic Chemistry, 2023)
